Experimental data as given in PubChem BioAssay AID1963850 (Molecular Pharmacology Branch, DTP, NCI, 2024).
Several values for one entry are separate records, joined by “and”; a condition that tells them apart may be missing. Equal values may be shown once.

Test system: 192522-019-R-J2-PDC complex tumor spheroid viability
Test: Anticancer human tumor 192522-019-R-J2-PDC patient-derived colon adenocarcinoma cell line growth inhibition [POLQ]
Conditions: for viability, T/C: stronger effect = lower value; for IC50: curve of compound
Method: Multicellular complex tumor spheroid response to Polymerase (POL) inhibitors (novobiocin, ART-558, RP6685) in combination with a variety of drugs and investigational agents in selected tumor cell lines
The POL inhibitors (novobiocin, ART-558, and RP6685) were evaluated both individually and in combination with standard of care and investigational anticancer small molecules within a complex spheroid model of solid tumors. . Complex spheroids include a stromal component modeled by human endothelial cells (HUVEC) and fibroblasts modeled by human mesenchymal stem cells (MSCs). The concentration ranges selected for each drug and investigational agent were based upon clinically achievable concentrations if the clinical Cmax of the agent was known.
Compounds. The drugs and investigational agents: novobiocin (NSC847541), ART-558 (NSC835418), RP-6685 (NSC848927), peposertib (NSC802822), ceralasertib (NSC780249), elimusertib (NSC800525), camonsertib (NSC841442), AZD-1390 (NSC803789), olaparib (NSC753686), talazoparib (NSC767125), rucaparib (NSC756644), sotorasib (NSC818433), MRTX-1133 (NSC836407), SN-38 (NSC673596), topotecan (NSC609699), epotoside (NSC141540), doxorubicin (NSC123127), gemcitabine (NSC613327), 5-fluorouracil (NSC19893), paclitaxel (NSC125973), vemurafenib (NSC761431), MSA-2 (NSC828583), SN-011 (NSC837082), adavosertib (NSC754352), prexasertib (NSC758257), carboplatin (NSC241240) and oxaliplatin (NSC266046), were obtained from the National Cancer Institute (NCI) Developmental Therapeutics Program Chemical Repository (21). The FDA-approved anticancer drug set is available from the Developmental Therapeutics Program at https://dtp.cancer.gov/organization/dscb/obtaining/. […] The stock solutions were prepared in dimethyl sulfoxide (DMSO, Sigma-Aldrich, St. Louis, MO, cat. D2650), except for the platinum compounds which were prepared in saline (Quality Biological, Gaithersburg, MD, cat. 114-055-101), at 800-fold the tested concentration and stored at -70 degrees C prior to their use. All drugs and investigational agents were tested over a range starting from a high concentration at or near the clinical Cmax and decreasing in half-log increments. If the clinical Cmax for an agent had not been determined, the highest concentration tested was 10 microM, except for SN-38, which was tested at a high concentration of 1 microM.
Cell Culture. All cells were maintained in an incubator at 37 degrees C and 5% CO2 with 95% humidity. The PDC lines were cultured according to standard operating procedures established by the NCI PDMR (https://pdmr.cancer.gov). Table 3 of the manuscript, lists the cell lines along with the number of the three cell types plated to form the mct-spheroids and media for tumor cell growth. After thawing, all PDC lines, except 997537-175-T-J1-PDC and 415267-285-R-J2-PDC, were cultured in Matrigel-coated flasks prepared with a working solution of 1X Ham's F-12 nutrient mix, without supplementation (Thermo Fisher Scientific, cat. 11765054), 100 U/mL penicillin-streptomycin (Thermo Fisher Scientific, cat. 15140122), and 2.5% Matrigel (Corning Inc., Corning, NY, cat. 354248) for the first three passages. The two PDC lines 997537-175-T-J1-PDC and 415267-285-R-J2-PDC were cultured on uncoated flasks. The 857933-349-R-J2-PDC line was cultured in 6C/Colon 1B media containing advanced DMEM/F-12 (Thermo Fisher Scientific, cat. 12634028), 10 mM HEPES (Thermo Fisher Scientific, cat. 15630080), 1X GlutaMAX supplement (Thermo Fisher Scientific, cat. 35050061), 0.1 mg/mL primocin (InvivoGen, San Diego, CA, cat. ant-pm-2), 10% defined fetal bovine serum, heat inactivated (HyClone Laboratories Inc., Logan, UT, cat. SH30070.03HI), 50% L-WRN conditioned media (ATCC, cat. CRL-3276), 1.25 mM N-Acetyl-L-cysteine (Sigma-Aldrich, cat. A9165), 10 mM nicotinamide (Sigma-Aldrich, cat. N0636), 1X B-27 supplement (Thermo Fisher Scientific, cat. 17504044), 1X N-2 supplement (Thermo Fisher Scientific, cat. […]
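Note: spheroids exposed to drugs for seven days before reading.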
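Throughout, for viability, T/C: 100% = DMSO vehicle control viability in luminescence.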

| SMILES | viability, T/C (compound 0.0316 µM) | viability, T/C (compound 0.1 µM) | viability, T/C (compound 0.316 µM) | viability, T/C (compound 1 µM) | viability, T/C (compound 3.16 µM) | viability, T/C (compound 10 µM) | IC50 | viability, T/C (compound 0.00316 µM) | viability, T/C (compound 0.01 µM) | viability, T/C (compound 0.00949 µM) | viability, T/C (compound 0.03 µM) | viability, T/C (compound 0.0949 µM) | viability, T/C (compound 0.3 µM) | viability, T/C (compound 0.949 µM) | viability, T/C (compound 3 µM) |
| --- | --- | --- | --- | --- | --- | --- | --- | --- | --- | --- | --- | --- | --- | --- | --- |
| C#Cc1c(F)ccc2cc(O)cc(-c3ncc4c(N5CC6CCC(C5)N6)nc(OCC56CCCN5CC(F)C6)nc4c3F)c12 (configuration not stated) | 102% and 98.2% and 109% | 93.6% and 81.8% and 87.3% | 73.3% and 77.1% and 80.5% | 78.4% and 77.9% and 83.4% | 78.9% and 73.7% and 70.6% | 67.8% and 64.1% and 64.3% | > 10000 nM |  |  |  |  |  |  |  |  |
| C=CC(=O)N1CCN(c2nc(=O)n(-c3c(C)ccnc3C(C)C)c3nc(-c4c(O)cccc4F)c(F)cc23)C(C)C1 (configuration not stated) | 107% (2×) and 105% | 92.4% and 101% and 94.3% | 95% and 94.1% and 97.7% | 106% and 102% and 109% | 104% and 113% and 112% | 104% and 109% and 108% | > 10000 nM |  |  |  |  |  |  |  |  |
| C=CCn1c(=O)c2cnc(Nc3ccc(N4CCN(C)CC4)cc3)nc2n1-c1cccc(C(C)(C)O)n1 | 97.5% and 100% and 99.1% | 102% (2×) and 106% | 85.8% and 97% and 86.1% | 24.8% and 36.2% and 38.5% |  |  | 627 nM and 773 nM and 764 nM | 101% and 105% and 108% | 97.8% and 97.2% and 97% |  |  |  |  |  |  |
| CC(=O)O[C@H]1C(=O)[C@@]2(C)[C@H]([C@H](OC(=O)c3ccccc3)[C@]3(O)C[C@H](OC(=O)[C@H](O)[C@@H](NC(=O)c4ccccc4)c4ccccc4)C(C)=C1C3(C)C)[C@]1(OC(C)=O)CO[C@@H]1C[C@@H]2O |  |  |  |  |  |  | > 3000 nM |  |  | 90.9% and 93% and 91.4% | 61.5% and 61.7% and 71.9% | 56.5% and 58.9% and 54.1% | 54.5% and 54.7% and 52.9% | 54.3% and 56.4% and 57.7% | 53% and 61.1% and 54.8% |
| CC(C)n1c(=O)n(C)c2cnc3cc(F)c(-c4ccc(OCCCN5CCCCC5)nc4)cc3c21 | 102% and 106% and 98.7% | 87.7% and 95.6% and 105% | 89.9% and 108% and 92.3% | 114% and 122% and 112% | 118% (2×) and 130% | 92.8% and 101% and 90.6% | > 10000 nM |  |  |  |  |  |  |  |  |
| CC1COCCN1c1cc(-c2ccnn2C)c2ccnc(-c3ccn[nH]3)c2n1 (configuration not stated) | 97.7% and 93.8% and 106% | 76% and 76.1% and 87.4% | 43.4% and 45% and 54.1% | 33.5% (2×) and 32.2% | 35.1% and 40.1% and 41% | 48% and 44.6% and 47.2% | 246 nM and 256 nM and 400 nM |  |  |  |  |  |  |  |  |
